According to patent US20060110456A1, “Method for biocidal and/or biostatic treatment and compositions therefor” (NATIONAL UNIVERSITY OF SINGAPORE, priority 2004, published 2006):
Values after ≈ are worked out from the molar mass of the structure shown. “Also recorded” adds a separate entry of the source. Counter-ions that a name gives are not always drawn.

How the values were obtained:
[1] = test system: biofilm bacteria (strains 4, 9, 14, 20, 27, 28); assay: Effect of pharmaceuticals on adhesion of bacteria to plastic / biofilm formation on NTC and TC plates; type: cell-based, marine bacteria isolated from Singapore fouling communities; details: for Effect on formation of bacterial biofilms on NTC and TC plates: 25 ug ml−1, NTC = untreated polystyrene, TC = tissue-culture treated, strains 4, 9, 14, 20, 27, 28; for Prevention of formation of biofilm: crude rank, best (1) to worst (8)
Protocol: Commercial forms of pharmaceuticals were used as previously described. […] These samples were sonicated for at least 1 min and these fine suspensions were used as initial stock solutions.
For studies of bacterial adhesion, the pharmaceuticals were first sterilized by soaking in absolute alcohol (Merck) for half an hour. Ethanol was removed by air-drying with air passed through 0.25 μm pore size syringe filter (Sartorius, Germany). Stock solutions were concentrations of 100 μg ml−1 in SDI.
The effect of pharmaceuticals on bacterial adhesion was analyzed using a modified microplate method adapted from Shea and Williamson (1990). This method employs a combination of staining attached bacteria with crystal violet, releasing the stain with sodium desoxycholate, and measuring the resulting absorbance of the crystal violet.
Detailed results for six selected strains are presented here: strains 4, 9, 14, 20, 27, 28. The bacterial strains were grown in Marine Broth (Pronadisa, Spain) overnight, in the dark, at 28° C. on a rotary shaker (150 rpm) in 5 ml centrifuge tubes (Falcon). Cells were harvested by centrifugation (1500×g, 10 min) and resuspended in sterile seawater (SSW). SSW was prepared by filtering seawater through a 0.2 μm pore size filter (Sartorius) followed by autoclaving. The cells were centrifuged and resuspended once more in SSW. The concentration of resuspended cells was adjusted to A600=1.0 using a spectrophotometer (Beckman DU530, USA).
Flat bottom 96 well polystyrene (hydrophobic, Falcon 351172) (=NTC) and tissue-culture treated polystyrene (hydrophilic, Falcon 353072) (=TC) microplates were used in the analyses. Each test was performed in triplicate. Two sets of experiments were conducted. […] For the control and blank wells, 25 ul of SDI were added. For wells containing pharmaceuticals, 25 ul of the respective pharmaceutical at a concentration of 100 ug ml−1 were added. This was immediately followed by the addition of 75 ul of bacterial suspension. To blanks were added 75 ul of SSW.
The bacterial cells in suspension were allowed to attach for 2 h at 28° C. Unattached cells were removed by aspiration using a plate washer (Tecan, Austria) and wells were rinsed three times with 200 ul of SSW each time. The attached cells were stained with 200 ul of crystal violet solution (0.1% w/v in deionized water) in each well for 5 min. After removing the stain using the plate washer, the wells were rinsed twice with 300 ul of SDI each time. Sodium desoxycholate (200 ul) solution (2% w/v in deionized water) was added to each well to extract the crystal violet from the attached stained cells for 10 min. The absorbance of the crystal violet was read at 590 nm using a microplate reader (Sunrise, Tecan, Austria).
Results of the adhesion assay were obtained by the difference in absorbance readings between wells containing bacterial cells and the mean of absorbance of those containing the SSW only. The effect of the pharmaceuticals on bacterial adhesion was determined by the examining the differences in absorbance between the wells containing the pharmaceuticals+bacteria and the bacteria. The significance was compared using T-test.

[2] = test system: Balanus amphitrite cyprids; assay: whole plant or invertebrate; details: for IC50: Amphibalanus amphitrite, 24 h, read-out: ED50; for Prevention of settlement of barnacle cyprids: crude rank, best (1) to worst (8); for Effect on settlement of cyprids: in words
Protocol: Pharmaceuticals from the respective manufacturers were treated in the following way. A pill containing a known amount of active ingredient (as stated in product information) was ground in a mortar and pestle and a suspension of 2 mg ml^−1 generated in de-ionized water. This stock solution is stored at −20° C. in 4 ml amber screw cap vials. For the bioassays, 250 ul of stock solution is added to 10 ml of 1 um filtered seawater. This suspension was then sonicated for 10 minutes. Serial dilutions of this 50 μg ml^−1 seawater solution, or suspension, with seawater was done to generate the required range of concentrations.
This method is now standard practice for many antifouling screening of novel compounds.
Barnacle larvae from field-collected adults were reared on an algal mixture of 1:2:2 v/v of Rhodomonas salina, Tetraselmis suecica and Chaetoceros muelleri at 25° C., at approximately 5×10^5 cells per ml density. On this regime, larvae metamorphose to cyprids in 5 days.
Test solutions were made up to twice the required final concentration. 1 ml of test solution was added into each well, and cyprids were transferred into each well in 1 ml of seawater. Assays were done in triplicate. After 24 hours, larvae that had attached and metamorphosed were enumerated and the result expressed as percentage settlement. Larvae not attached were scored as not settled.
The Therapeutic Ratio, or LC50/EC50, is a way of assessing the effectiveness of the compound in relation to its toxicity. […] LC50 and EC50 estimates and the therapeutic ratio should be considered as working values providing an estimation of potency, rather than as absolutes.

[3] = cited from earlier work; for Solubility: in words

Row | Structure (SMILES) | Effect on formation of bacterial biofilms on NTC and TC plates ([1]; hydrochloride) | Prevention of formation of biofilm [1] | IC50 [2] [µg/mL] | Prevention of settlement of barnacle cyprids [2] | Solubility [3] | Effect on formation of bacterial biofilms on NTC and TC plates [1] | Solubility in water [3] [µg/mL] | Effect on settlement of cyprids [2] | ED50 ([2]; barnacle cyprids, 24 hours, concentration that caused 50% settlement inhibition) [µg/mL] | Mortality of cyprids ([2]; settlement bioassay wells)
1 | CN1CCN(C(c2ccccc2)c2ccccc2)CC1 [CYZ, Cyclizine hydrochloride] | significantly more bacteria adhesion for strain 9; also recorded: No significant reduction in biofilm formation | 8 | 0.156 | 4 | soluble in water |  |  |  |  | 
2 | CCCCCCCCCC(=O)OC1(c2ccc(Cl)cc2)CCN(CCCC(=O)c2ccc(F)cc2)CC1 [HDL, haloperidol decanoate] |  | 6 | 0.119 (≈ 0.225 µM) | 3 | almost insoluble in water | no significant difference from control; also recorded: On TC, there was a slight reduction in biofilm formation for strain 28 (p<0.1); also recorded: No significant reduction in biofilm formation was observed for most strains, except for strain 28, where there appears to be a slight effect (0.05<p<0.1) | 10 (≈ 18.9 µM) |  |  | 
3 | CN(C)C(=O)C(CCN1CCC(O)(c2ccc(Cl)cc2)CC1)(c1ccccc1)c1ccccc1 [IMD, Loperamide hydrochloride] | On NTC, there was a slight reduction in strain 28; also recorded: reduction of biofilm growth in strain 28 on NTC but not on TC | 7 | > 5 | 8 | slightly soluble in water |  |  | not effective against cyprids |  | 
4 | CN[C@H]1CC[C@@H](c2ccc(Cl)c(Cl)c2)c2ccccc21.Cl [ZLT, sertraline hydrochloride] | Biofilm formation was reduced for most strains except strain 14; also recorded: reduction of biofilm growth for most strains (except strain 14) on NTC, but only for strain 28 on TC | 3 |  | 6 | slightly soluble in water |  |  |  | 0.50185 | 
5 | Cc1cc2c(s1)Nc1ccccc1N=C2N1CCN(C)CC1 [ZPX, olanzapine] |  | 1 | 0.00231 (≈ 0.00739 µM) | 1 | practically insoluble in water | prevented biofilm formation for all 6 strains in the NTC plates, and slightly reduced the biofilm formation in strains 4 on the TC plates; also recorded: marked reduction of biofilm growth for all strains on NTC, but only a slight reduction for strain 4 on TC |  | at concentrations less than 1 ug ml^−1, the cyprids were not killed but were not able to settle; also recorded: prevented the settlement of cyprids |  | not very different from the control
6 | CN1CCN(CCCN2c3ccccc3Sc3ccc(C(F)(F)F)cc32)CC1 [TFZ, Trifluoperazine hydrochloride] | reduced biofilm formation on NTC plates; also recorded: active against strain 4, 14, 27 on NTC but no reduction of biofilms was observed on the TC plates | 4 | 0.0748 | 2 |  |  |  |  |  | 
7 | Cc1nccn1CC1CCc2c(c3ccccc3n2C)C1=O (stereo not drawn) [ZFN, ondansetron hydrochloride] | reduced bacterial adhesion of the 6 strains to the NTC plates; also recorded: only slight activity (p<0.1) against strain 4 on the TC plates; also recorded: marked reduction of biofilm growth for most on NTC but not on TC | 2 | 0.242 | 5 | soluble in saline and water |  |  |  |  | 
8 | CNCCC(Oc1ccc(C(F)(F)F)cc1)c1ccccc1 (stereo not drawn) [PZC, fluoxetine hydrochloride] | slight effect on biofilm formation in strain 4 on both TC and NTC plates; also recorded: slight effect on strain 4 (p<0.1) | 5 |  | 7 |  |  |  |  |  | 
9 | CN1CCN(CCCN2c3ccccc3Sc3ccc(Cl)cc32)CC1 [PCZ, prochlorperazine maleate] |  | 4 | 0.174 | 2 |  | reduced biofilm formation only for strains 4 and 27; also recorded: active against strain 4, and a slight effect on strain 27 |  |  |  | 
